Experimental data as given in patent publication US8541588B2, “Sulfonamide derivatives” (Pfizer Limited, priority 2009, dated 2013).
Where a name gives a salt, the structure may show the parent alone.

Target: T1, Nav1.7 (or SCN9A) channel; HEK cells stably transfected with hSCN9A (Homo sapiens, UniProt Q15858)
T1 construct: expressed in transfected cells
Experiment: Nav1.7 block, PatchXpress 7000 automated whole-cell voltage clamp, estimated IC50 (EIC50)
Format: cell-based
Conditions: PatchXpress platform, estimated IC50

[1] = hSCN9A HEK cells held at V1/2 of inactivation
[2] = hSCN9A HEK cells, Examples 283-814

T1 sequence (Q15858 whole entry): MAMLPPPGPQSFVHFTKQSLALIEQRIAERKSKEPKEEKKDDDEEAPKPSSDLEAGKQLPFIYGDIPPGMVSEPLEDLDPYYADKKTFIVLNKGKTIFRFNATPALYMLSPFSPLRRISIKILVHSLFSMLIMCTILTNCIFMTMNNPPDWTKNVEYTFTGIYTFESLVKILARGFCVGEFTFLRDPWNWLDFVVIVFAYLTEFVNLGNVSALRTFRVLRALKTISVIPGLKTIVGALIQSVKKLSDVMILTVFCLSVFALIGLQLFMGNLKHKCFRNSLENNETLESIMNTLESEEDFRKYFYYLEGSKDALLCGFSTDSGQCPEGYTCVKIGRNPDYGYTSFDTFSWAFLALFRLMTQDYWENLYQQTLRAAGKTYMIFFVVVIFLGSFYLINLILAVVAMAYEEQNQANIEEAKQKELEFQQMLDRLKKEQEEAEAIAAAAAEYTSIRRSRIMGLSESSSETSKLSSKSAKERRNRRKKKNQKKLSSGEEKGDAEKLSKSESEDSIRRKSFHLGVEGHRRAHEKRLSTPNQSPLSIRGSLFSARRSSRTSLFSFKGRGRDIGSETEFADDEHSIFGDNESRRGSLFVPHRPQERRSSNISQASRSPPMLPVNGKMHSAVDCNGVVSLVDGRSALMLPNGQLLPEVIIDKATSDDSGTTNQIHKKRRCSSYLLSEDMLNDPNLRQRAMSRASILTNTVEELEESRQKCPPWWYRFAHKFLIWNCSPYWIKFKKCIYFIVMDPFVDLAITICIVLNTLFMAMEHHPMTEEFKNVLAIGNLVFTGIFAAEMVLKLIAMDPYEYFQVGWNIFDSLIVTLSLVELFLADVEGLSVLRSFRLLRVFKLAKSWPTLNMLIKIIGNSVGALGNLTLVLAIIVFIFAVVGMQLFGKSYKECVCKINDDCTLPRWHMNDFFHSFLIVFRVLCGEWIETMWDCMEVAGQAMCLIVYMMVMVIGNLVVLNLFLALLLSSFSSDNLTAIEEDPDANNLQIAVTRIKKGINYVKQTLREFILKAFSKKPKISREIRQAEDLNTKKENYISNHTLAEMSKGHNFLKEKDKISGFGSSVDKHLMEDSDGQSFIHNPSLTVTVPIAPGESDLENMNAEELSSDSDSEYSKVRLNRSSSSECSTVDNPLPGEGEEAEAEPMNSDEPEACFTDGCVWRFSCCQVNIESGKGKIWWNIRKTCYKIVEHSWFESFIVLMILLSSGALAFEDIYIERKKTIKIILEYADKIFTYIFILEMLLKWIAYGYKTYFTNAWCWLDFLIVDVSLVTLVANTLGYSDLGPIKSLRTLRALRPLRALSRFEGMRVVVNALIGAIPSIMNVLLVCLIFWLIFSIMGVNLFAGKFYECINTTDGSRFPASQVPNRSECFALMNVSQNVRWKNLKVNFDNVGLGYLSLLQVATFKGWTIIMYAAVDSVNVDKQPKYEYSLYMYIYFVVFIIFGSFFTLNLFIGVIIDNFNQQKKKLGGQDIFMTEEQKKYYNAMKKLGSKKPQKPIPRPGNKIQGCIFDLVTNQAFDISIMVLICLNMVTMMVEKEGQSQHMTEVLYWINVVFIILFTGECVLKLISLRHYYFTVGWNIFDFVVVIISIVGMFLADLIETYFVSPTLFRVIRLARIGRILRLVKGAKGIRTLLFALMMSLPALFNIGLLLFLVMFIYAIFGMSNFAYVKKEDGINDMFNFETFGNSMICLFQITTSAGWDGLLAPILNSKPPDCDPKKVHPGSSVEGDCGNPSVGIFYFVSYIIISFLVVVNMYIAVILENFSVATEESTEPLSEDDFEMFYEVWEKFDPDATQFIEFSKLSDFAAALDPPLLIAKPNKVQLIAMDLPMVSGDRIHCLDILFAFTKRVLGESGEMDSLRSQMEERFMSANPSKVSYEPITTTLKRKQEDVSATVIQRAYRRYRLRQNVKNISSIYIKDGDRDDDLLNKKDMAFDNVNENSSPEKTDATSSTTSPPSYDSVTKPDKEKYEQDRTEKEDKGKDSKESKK

| SMILES | IC50 [1] [nM] | IC50 [2] [nM] |
| --- | --- | --- |
| O=S(=O)(Nc1ncns1)c1cc(F)c(Oc2ccccc2-c2ccccc2)cc1Cl [Example 267, 4-(biphenyl-2-yloxy)-2-chloro-5-fluoro-N-1,2,4-thiadiazol-5-ylbenzenesulfonamide] | 190 |  |
| N#Cc1cc(Oc2ccccc2-c2ccccc2)ccc1S(=O)(=O)Nc1ncns1 [Example 268, 4-(biphenyl-2-yloxy)-2-cyano-N-1,2,4-thiadiazol-5-ylbenzenesulfonamide] | 3060 |  |
| O=S(=O)(Nc1ncns1)c1ccc(Oc2ccccc2-c2ccccc2)c(F)c1F [Example 269, 4-(biphenyl-2-yloxy)-2,3-difluoro-N-1,2,4-thiadiazol-5-ylbenzenesulfonamide] | 480 |  |
| O=S(=O)(Nc1ncns1)c1cc(Cl)c(Oc2ccccc2-c2ccccc2)cc1F [Example 270, 4-(biphenyl-2-yloxy)-5-chloro-2-fluoro-N-1,2,4-thiadiazol-5-ylbenzenesulfonamide] | 30 |  |
| O=S(=O)(Nc1cscn1)c1ccc(Oc2ccccc2-c2ccccc2)c(F)c1 [Example 271, 4-(biphenyl-2-yloxy)-3-fluoro-N-thiazol-4-yl-benzenesulfonamide] | 1150 |  |
| Cn1nccc1-c1cc(Cl)ccc1Oc1ccc(S(=O)(=O)Nc2cscn2)cc1F [Example 272, 4-[4-chloro-2-(2-methyl-2H-pyrazol-3-yl)-phenoxy]-3-fluoro-N-thiazol-4-yl-benzenesulfonamide] | 810 |  |
| O=S(=O)(Nc1nccs1)c1ccc(Oc2ccccc2-c2ccccc2)cc1 [Example 276, 4-(biphenyl-2-yloxy)-N-thiazol-2-yl-benzenesulfonamide] | 550 |  |
| O=S(=O)(Nc1nccs1)c1ccc(Oc2ccccc2-c2ccccc2)nc1 [Example 278, 6-(biphenyl-2-yloxy)-pyridine-3-sulfonic acid thiazol-2-ylamide] | 2660 |  |
| CC(C)(C)n1nc(C(F)(F)F)cc1-c1ccc(Oc2ccc(S(=O)(=O)Nc3nccs3)cc2C#N)cc1 [Example 279, 4-[4-(2-tertbutyl-5-trifluoromethyl-2H-pyrazol-3-yl)-phenoxy]-3-cyano-N-thiazol-2-yl-benzenesulfonamide] | 70 |  |
| CCn1nc(C(F)(F)F)cc1-c1ccc(Oc2ccc(S(=O)(=O)Nc3nccs3)cc2C#N)cc1 [Example 280, 3-cyano-4-[4-(2-ethyl-5-trifluoromethyl-2H-pyrazol-3-yl)-phenoxy]-N-thiazol-2-yl-benzenesulfonamide] | 90 |  |
| Cn1nc(C(F)(F)F)cc1-c1ccc(Oc2ccc(S(=O)(=O)Nc3nccs3)cc2C#N)cc1 [Example 282, 3-cyano-4-[4-(2-methyl-5-trifluoromethyl-2H-pyrazol-3-yl)-phenoxy]-N-thiazol-2-yl-benzenesulfonamide] | 180 |  |
| CC(C)n1cc(-c2cc(Cl)ccc2Oc2ccc(S(=O)(=O)Nc3ncns3)cc2C#N)cn1 [Example 283, 4-[4-chloro-2-(1-isopropyl-1H-pyrazol-4-yl)phenoxy]-3-cyano-N-1,2,4-thiadiazol-5-ylbenzenesulfonamide] |  | 580 |
| N#Cc1cncc(-c2cc(C(F)(F)F)ccc2Oc2ccc(S(=O)(=O)Nc3ncns3)cc2C#N)c1 [Example 284, 3-cyano-4-[2-(5-cyanopyridin-3-yl)-4-(trifluoromethyl)phenoxy]-N-1,2,4-thiadiazol-5-ylbenzenesulfonamide] |  | 1600 |
| CC(C)(C)n1nccc1-c1cc(F)ccc1Oc1ccc(S(=O)(=O)Nc2ncns2)cc1C#N [Example 285, 4-[2-(1-tert-butyl-1H-pyrazol-5-yl)-4-fluorophenoxy]-3-cyano-N-1,2,4-thiadiazol-5-ylbenzenesulfonamide] |  | 620 |
| N#Cc1cc(S(=O)(=O)Nc2ncns2)ccc1Oc1ccc(I)cc1-c1cn[nH]c1 [Example 289, 3-cyano-4-[4-iodo-2-(1H-pyrazol-4-yl)phenoxy]-N-1,2,4-thiadiazol-5-ylbenzenesulfonamide] |  | 390 |
| CCn1nc(C(F)(F)F)cc1-c1cccc(Oc2ccc(S(=O)(=O)Nc3nc(C)ns3)cc2C#N)c1 [Example 290, 3-cyano-4-{3-[1-ethyl-3-(trifluoromethyl)-1H-pyrazol-5-yl]phenoxy}-N-(3-methyl-1,2,4-thiadiazol-5-yl)benzenesulfonamide] |  | 2000 |
| Cn1nc(C(F)(F)F)cc1-c1ccc(Oc2ccc(S(=O)(=O)Nc3nccs3)cc2C#N)c(C#N)c1 [Example 292, 3-cyano-4-{2-cyano-4-[1-methyl-3-(trifluoromethyl)-1H-pyrazol-5-yl]phenoxy}-N-1,3-thiazol-2-ylbenzenesulfonamide] |  | 44 |
| Cn1nccc1-c1cc(F)ccc1Oc1cc(F)c(S(=O)(=O)Nc2ccncn2)cc1Cl [Example 295, 5-chloro-2-fluoro-4-[4-fluoro-2-(1-methyl-1H-pyrazol-5-yl)phenoxy]-N-pyrimidin-4-ylbenzenesulfonamide] |  | 130 |
| Cn1nc(C(F)(F)F)cc1-c1ccc(Oc2cc(F)c(S(=O)(=O)Nc3nccs3)cc2Cl)c(C#N)c1 [Example 296, 5-chloro-4-{2-cyano-4-[1-methyl-3-(trifluoromethyl)-1H-pyrazol-5-yl]phenoxy}-2-fluoro-N-1,3-thiazol-2-ylbenzenesulfonamide] |  | 25 |
| Cn1nc(C(F)(F)F)cc1-c1ccc(Oc2cc(F)c(S(=O)(=O)Nc3nncs3)cc2Cl)c(C#N)c1 [Example 297, 5-chloro-4-{2-cyano-4-[1-methyl-3-(trifluoromethyl)-1H-pyrazol-5-yl]phenoxy}-2-fluoro-N-1,3,4-thiadiazol-2-ylbenzenesulfonamide] |  | 1000 |
| Cn1nccc1-c1cc(F)ccc1Oc1cc(F)c(S(=O)(=O)Nc2nncs2)cc1Cl [Example 298, 5-chloro-2-fluoro-4-[4-fluoro-2-(1-methyl-1H-pyrazol-5-yl)phenoxy]-N-1,3,4-thiadiazol-2-ylbenzenesulfonamide] |  | 140 |
| Cn1nccc1-c1cc(Cl)ccc1Oc1cc(F)c(S(=O)(=O)Nc2nncs2)cc1F [Example 301, 4-[4-chloro-2-(1-methyl-1H-pyrazol-5-yl)phenoxy]-2,5-difluoro-N-1,3,4-thiadiazol-2-ylbenzenesulfonamide] |  | 280 |
| O=S(=O)(Nc1nncs1)c1cc(F)c(Oc2ccc(Cl)cc2-c2ccn[nH]2)cc1F [Example 302, 4-[4-chloro-2-(1H-pyrazol-5-yl)phenoxy]-2,5-difluoro-N-1,3,4-thiadiazol-2-ylbenzenesulfonamide] |  | 160 |

More lines, now with the values ahead:

| IC50 [1] [nM] | IC50 [2] [nM] | SMILES |
| --- | --- | --- |
| 2170 |  | O=S(=O)(Nc1cscn1)c1ccc(Oc2ccc(-c3ccccc3)cc2)c(F)c1 [Example 273, 4-(biphenyl-4-yloxy)-3-fluoro-N-thiazol-4-yl-benzenesulfonamide] |
| >10000 |  | O=S(=O)(Nc1cscn1)c1ccc(Oc2cc(C(F)(F)F)nn2-c2ccccc2)c(F)c1 [Example 274, 3-fluoro-4-(2-phenyl-5-trifluoromethyl-2H-pyrazol-3-yloxy)-N-thiazol-4-yl-benzenesulfonamide] |
| 70 |  | Cn1nccc1-c1cc(Cl)ccc1Oc1ccc(S(=O)(=O)Nc2ncc(F)s2)cc1F [Example 275, 4-[4-chloro-2-(2-methyl-2H-pyrazol-3-yl)-phenoxy]-3-fluoro-N-(5-fluoro-thiazol-2-yl)-benzenesulfonamide] |
| 1110 |  | Cc1cc(Oc2ccc(S(=O)(=O)Nc3nccs3)cc2)n(-c2ccccc2)n1 [Example 277, 4-(5-methyl-2-phenyl-2H-pyrazol-3-yloxy)-N-thiazol-2-yl-benzenesulfonamide] |
| 120 |  | CC(C)(C)n1nc(C(F)(F)F)cc1-c1ccc(Oc2ccc(S(=O)(=O)Nc3ncc(F)s3)cc2C#N)cc1 [Example 281, 4-(4-(1-tert-butyl-3-(trifluoromethyl)-1H-pyrazol-5-yl)phenoxy)-3-cyano-N-(5-fluorothiazol-2-yl)benzenesulfonamide] |
|  | 530 | Cn1ccc(-c2cc(Cl)ccc2Oc2ccc(S(=O)(=O)Nc3ncns3)cc2C#N)n1 [Example 286, 4-[4-chloro-2-(1-methyl-1H-pyrazol-3-yl)phenoxy]-3-cyano-N-1,2,4-thiadiazol-5-ylbenzenesulfonamide] |
|  | >1000 | N#Cc1cc(S(=O)(=O)Nc2ncns2)ccc1Oc1ccc(-n2cc(COC(=O)C(F)(F)F)cn2)cc1 [Example 287, [1-(4-{2-cyano-4-[(1,2,4-thiadiazol-5-ylamino)sulfonyl]phenoxy}phenyl)-1H-pyrazol-4-yl]methyl trifluoroacetate] |
|  | >1000 | N#Cc1cc(S(=O)(=O)Nc2ncns2)ccc1Oc1ccc(-n2cc(CO)cn2)cc1 [Example 288, 3-cyano-4-{4-[4-(hydroxymethyl)-1H-pyrazol-1-yl]phenoxy}-N-1,2,4-thiadiazol-5-ylbenzenesulfonamide] |
|  | 2500 | CCn1nc(C(F)(F)F)cc1-c1ccc(Oc2ccc(S(=O)(=O)Nc3nc(C)ns3)cc2C#N)cc1 [Example 291, 3-cyano-4-{4-[1-ethyl-3-(trifluoromethyl)-1H-pyrazol-5-yl]phenoxy}-N-(3-methyl-1,2,4-thiadiazol-5-yl)benzenesulfonamide] |
|  | 93 | Cn1nc(C(F)(F)F)cc1-c1ccc(Oc2ccc(S(=O)(=O)Nc3ncns3)cc2C#N)c(C#N)c1 [Example 293, 3-cyano-4-{2-cyano-4-[1-methyl-3-(trifluoromethyl)-1H-pyrazol-5-yl]phenoxy}-N-1,2,4-thiadiazol-5-ylbenzenesulfonamide] |
|  | 34 | Cc1nsc(NS(=O)(=O)c2cc(Cl)c(Oc3ccc(Cl)cc3-c3ccnn3C)cc2F)n1 [Example 294, 5-chloro-4-[4-chloro-2-(1-methyl-1H-pyrazol-5-yl)phenoxy]-2-fluoro-N-(3-methyl-1,2,4-thiadiazol-5-yl)benzenesulfonamide] |
|  | 39 | O=S(=O)(Nc1nncs1)c1cc(Cl)c(Oc2ccc(Cl)cc2-c2ccn[nH]2)cc1F [Example 300, 5-chloro-4-[4-chloro-2-(1H-pyrazol-5-yl)phenoxy]-2-fluoro-N-1,3,4-thiadiazol-2-ylbenzenesulfonamide] |
|  | 430 | CC(C)(C)n1nc(C(F)(F)F)cc1-c1ccc(Oc2ccc(S(=O)(=O)Nc3nccs3)c(F)c2)cc1 [Example 303, 4-{4-[1-tert-Butyl-3-(trifluoromethyl)-1H-pyrazol-5-yl]phenoxy}-2-fluoro-N-1,3-thiazol-2-ylbenzenesulfonamide] |
